Laboratory results from ChEMBL document CHEMBL1201862, “PubChem BioAssay data set” (2004).
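Growth conditions: 96-well plates. Treatment: test compound, 48 hours, 5 concentrations. Analysis: linear interpolation between bracketing concentrations; unreached endpoints set to highest concentration. The concentration for 50% growth inhibition is given as GI50.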 Calls of active or inactive are those of the source. Rule as the data show it: active = GI50 up to about 1.1 µM and inactive = higher.

Key:
Assay in all cases: inhibition of tumour cell growth, NCI panel, 48 h
[1] = test system: EKVX
[2] = test system: MCF7
[3] = test system: MDA-MB-231
[4] = test system: HT-29
[5] = test system: MOLT-4
[6] = test system: SNB-19
[7] = test system: HCT-116
[8] = test system: RXF 393
[9] = test system: Hs-578T
[10] = test system: MDA-N
[11] = test system: UACC-257
[12] = test system: SF-539
[13] = test system: UACC-62
[14] = test system: BT-549
[15] = test system: A549
[16] = test system: NCI-H522
[17] = test system: A498
[18] = test system: CCRF-CEM
[19] = test system: NCI-H226
[20] = test system: RPMI-8226
[21] = test system: SN12C
[22] = test system: SF-268
[23] = test system: SK-OV-3
[24] = test system: LOX IMVI
[25] = test system: U-251
[26] = test system: IGROV-1
[27] = test system: OVCAR-4
[28] = test system: NCI-H460
[29] = test system: 786-0
[30] = test system: HL-60
[31] = test system: SW-620
[32] = test system: HOP-92
[33] = test system: OVCAR-3
[34] = test system: HCC 2998
[35] = test system: SK-MEL-28
[36] = test system: SR
[37] = test system: HCT-15
[38] = test system: UO-31
[39] = test system: K562
[40] = test system: ACHN
[41] = test system: TK-10
[42] = test system: CAKI-1
[43] = test system: OVCAR-5
[44] = test system: PC-3
[45] = test system: NCI/ADR-RES
[46] = test system: M14
[47] = test system: SNB-75
[48] = test system: KM12
[49] = test system: SK-MEL-5
[50] = test system: OVCAR-8
[51] = test system: NCI-H23
[52] = test system: Malme-3M
[53] = test system: SK-MEL-2
[54] = test system: COLO 205
[55] = test system: T47D
[56] = test system: HOP-62
[57] = test system: SF-295
[58] = test system: DU-145
[59] = test system: MDA-MB-435

## c1ccc(Nn2c(CCCCCCCCc3nnc(COc4ccccc4)n3Nc3ccccc3)nnc2COc2ccccc2)cc1
[1]
  GI50: 32.7 µM (inactive)
[2]
  GI50: 11.5 µM (inactive)
[3]
  GI50: 20 µM (inactive)
[4]
  GI50: 24.3 µM (inactive)
[5]
  GI50: 18 µM (inactive)
[6]
  GI50: 36.9 µM (inactive)
[7]
  GI50: 16.2 µM (inactive)
[8]
  GI50: 48.5 µM (inactive)
[9]
  GI50: 72.8 µM (inactive)
[10]
  GI50: 11 µM (inactive)
[11]
  GI50: 13.9 µM (inactive)
[12]
  GI50: 12.8 µM (inactive)
[13]
  GI50: 1.74 µM (inactive)
[14]
  GI50: 58.5 µM (inactive)
[15]
  GI50: 11.8 µM (inactive)
[16]
  GI50: 16.1 µM (inactive)
[17]
  GI50: 87.9 µM (inactive)

## CN1C2=C(CC3=C1CC(C)(C)CC3=O)C(=O)CC(C)(C)C2
[18]
  GI50: > 100 µM (inactive)
[19]
  GI50: > 100 µM (inactive)
[20]
  GI50: > 100 µM (inactive)
[1]
  GI50: > 100 µM (inactive)
[21]
  GI50: > 100 µM (inactive)
[2]
  GI50: > 100 µM (inactive)
[22]
  GI50: > 100 µM (inactive)
[23]
  GI50: > 100 µM (inactive)
[4]
  GI50: > 100 µM (inactive)
[24]
  GI50: > 100 µM (inactive)
[25]
  GI50: > 100 µM (inactive)
[26]
  GI50: > 100 µM (inactive)
[27]
  GI50: > 100 µM (inactive)
[28]
  GI50: > 100 µM (inactive)
[5]
  GI50: > 100 µM (inactive)
[29]
  GI50: > 100 µM (inactive)
[6]
  GI50: > 100 µM (inactive)
[30]
  GI50: > 100 µM (inactive)
[31]
  GI50: > 100 µM (inactive)
[32]
  GI50: > 100 µM (inactive)
[9]
  GI50: > 100 µM (inactive)
[33]
  GI50: > 100 µM (inactive)
[34]
  GI50: > 100 µM (inactive)
[35]
  GI50: > 100 µM (inactive)
[36]
  GI50: > 100 µM (inactive)
[37]
  GI50: > 100 µM
[38]
  GI50: > 100 µM (inactive)
[12]
  GI50: > 100 µM (inactive)
[39]
  GI50: > 100 µM (inactive)
[40]
  GI50: > 100 µM (inactive)
[13]
  GI50: > 100 µM (inactive)
[14]
  GI50: > 100 µM (inactive)
[41]
  GI50: > 100 µM (inactive)
[15]
  GI50: > 100 µM (inactive)
[42]
  GI50: > 100 µM (inactive)
[43]
  GI50: > 100 µM (inactive)
[44]
  GI50: > 100 µM (inactive)
[45]
  GI50: > 100 µM (inactive)
[46]
  GI50: > 100 µM (inactive)
[47]
  GI50: > 100 µM (inactive)
[48]
  GI50: > 100 µM (inactive)
[49]
  GI50: > 100 µM (inactive)
[50]
  GI50: > 100 µM (inactive)
[17]
  GI50: > 100 µM (inactive)
[51]
  GI50: > 100 µM (inactive)

## COc1ccccc1N(CN1C(=O)CCC1C(=O)O)C(C)=O (centres undefined)
[52]
  GI50: > 100 µM (inactive)
[19]
  GI50: > 100 µM (inactive)
[20]
  GI50: > 100 µM (inactive)
[1]
  GI50: > 100 µM (inactive)
[21]
  GI50: > 100 µM (inactive)
[2]
  GI50: > 100 µM (inactive)
[22]
  GI50: 53 µM (inactive)
[3]
  GI50: > 100 µM (inactive)
[23]
  GI50: > 100 µM (inactive)
[4]
  GI50: > 100 µM (inactive)
[24]
  GI50: > 100 µM (inactive)
[53]
  GI50: > 100 µM (inactive)
[25]
  GI50: > 100 µM (inactive)
[26]
  GI50: 0.138 µM (active)
[27]
  GI50: > 100 µM (inactive)
[28]
  GI50: > 100 µM (inactive)
[5]
  GI50: > 100 µM (inactive)
[54]
  GI50: > 100 µM (inactive)
[29]
  GI50: > 100 µM (inactive)
[6]
  GI50: > 100 µM (inactive)
[30]
  GI50: > 100 µM (inactive)
[7]
  GI50: > 100 µM (inactive)
[8]
  GI50: 74.5 µM (inactive)
[31]
  GI50: > 100 µM (inactive)
[32]
  GI50: > 100 µM (inactive)
[9]
  GI50: > 100 µM (inactive)
[33]
  GI50: > 100 µM (inactive)
[34]
  GI50: > 100 µM (inactive)
[35]
  GI50: > 100 µM (inactive)
[10]
  GI50: > 100 µM (inactive)
[36]
  GI50: 72.6 µM (inactive)
[55]
  GI50: > 100 µM (inactive)
[37]
  GI50: > 100 µM
[11]
  GI50: > 100 µM (inactive)
[38]
  GI50: > 100 µM (inactive)
[12]
  GI50: > 100 µM (inactive)
[39]
  GI50: > 100 µM (inactive)
[40]
  GI50: > 100 µM (inactive)
[13]
  GI50: > 100 µM (inactive)
[56]
  GI50: > 100 µM (inactive)
[41]
  GI50: > 100 µM (inactive)
[57]
  GI50: > 100 µM (inactive)
[15]
  GI50: > 100 µM (inactive)
[42]
  GI50: > 100 µM (inactive)
[43]
  GI50: > 100 µM (inactive)
[44]
  GI50: > 100 µM (inactive)
[45]
  GI50: > 100 µM (inactive)
[46]
  GI50: > 100 µM (inactive)
[47]
  GI50: > 100 µM (inactive)
[16]
  GI50: > 100 µM (inactive)
[48]
  GI50: > 100 µM (inactive)
[49]
  GI50: > 100 µM (inactive)
[50]
  GI50: > 100 µM (inactive)
[17]
  GI50: > 100 µM (inactive)
[58]
  GI50: > 100 µM (inactive)
[51]
  GI50: > 100 µM (inactive)
[59]
  GI50: > 100 µM (inactive)
